Experimental data as given in patent US11318126B2, “Composition for activating neurogenesis” (KYOTO UNIVERSITY, priority 2016, dated 2022).

Columns and labels:
DYRK1A [1] = target: T1, DYRK1A (Homo sapiens, UniProt Q13627); test: Western blotting of tau protein phosphorylation (threonine 212) in cultured cells expressing tau protein and DYRK1A protein; assay type: cell-based; conditions: 0.3 μM, 1 μM, 3 μM, or 10 μM; antibody to phosphorylated threonine 212 of tau
Description: Tau protein, which is a substrate of a target kinase, was overexpressed in cells in the presence of Compound 4 or 10 at a concentration of 0.3 μM, 1 μM, 3 μM, or 10 μM, and the inhibitory activity of Compounds 4 and 10 was examined using the phosphorylation of the tau protein as an index.
FIG. 2 is an example of the result of Western blotting analysis of cultured cells in which the expression of both tau protein and DYRK1A protein was induced in the presence of Compound 4 or 10 at a concentration of 0.3 μM, 1 μM, 3 μM, or 10 μM, using an antibody that specifically recognizes the phosphorylated threonine residue at 212-position of tau protein was used to analyze.

Mouse neural stem cells = test: BrdU uptake in cultured mouse neural stem cells (Arrayscan); assay type: cell-based; conditions: for incorporation of BrdU into neural stem cells (ratio of BrdU-positive cells relative to control): 1.25 μM, 2.5 μM, or 5 μM
Description: Mouse neural stem cells were treated with Compound 4 or 10, and then neural stem cell proliferating activity was examined using, as an index, uptake of 5-bromo-2′-deoxyuridine (BrdU), which is a nucleoside analog to be used as a proliferation index.
Specifically, isolated neural stem cells were cultured in the presence of BrdU and Compound 4 or 10 at a concentration of 1.25 μM, 2.5 μM, or 5 μM, so that proliferating cells were labeled. After the cells were fixed, BrdU was detected by an anti-BrdU antibody, and the ratio of proliferating cells that had incorporated the BrdU was quantitatively analyzed using Arrayscan (Thermo Scientific). […] In FIG. 3, “Control” indicates the results from adding no compounds, and “Solvent” indicates dimethyl sulfoxide (DMSO).

DYRK1A [2] = target: T1, DYRK1A; test: in-vitro kinase assay against DYRK1A; assay type: biochemical; conditions: for IC50: DYRK peptide as substrate, 10 μM ATP
Description: The inhibitory activity of Compounds 4 and 10 against DYRK1A was examined through in-vitro kinase assay (in-vitro kinase analysis).
The inhibitory activity of Compounds 4 and 10 against DYRK1A was examined in the presence of DYRK1A protein using a DYRK peptide as a substrate under the condition of 10 μM ATP.

cyclin D1 [3] = test: Western blotting of cyclin D1 expression in cultured mouse neural stem cells; assay type: cell-based; conditions: relative to control
Description: Mouse neural stem cells were treated with Compound 4, 6, or 10, and the expression level of cyclin D1, which positively controls cell proliferation, was examined through Western blotting. FIGS. 4A and 4B show the results. In FIGS. 4A and 4B, “Control” indicates the results from adding no compounds, and “Solvent” indicates dimethyl sulfoxide (DMSO).

[4] = tested on: fibroblasts derived from human skin; test: flow cytometry cell cycle analysis of fibroblasts derived from human skin; assay type: cell-based; conditions: 48 hours treatment
Description: Next, fibroblasts derived from human skin were treated with a solvent or Compound 4 for 48 hours, and the cell cycle was analyzed through flow cytometry. […] It is considered that this is because Compound 4 stabilized cyclin D1 and thus stimulated the progression of the cell cycle from the G1 phase to the subsequent S phase and G2/M phase.

[5] = tested on: neural stem cells isolated Down syndrome model mice (Ts1Cje); test: proliferation (BrdU-positive ratio) of neural stem cells from Down syndrome model mice; assay type: cell-based, mouse; conditions: Ts1Cje versus wild-type
Description: Neural stem cells were prepared from wild-type mice and Down syndrome model mice (Ts1Cje: the same applies hereinafter), and the effect of Compound 4 on the proliferation of neural stem cells isolated Down syndrome model mice was examined. […] In FIG. 6, “Solvent” indicates the results from no adding compound.

[6] = tested on: Down syndrome model mice (fetus); test: thickness of the cerebral cortex of Down syndrome model fetuses after oral administration to pregnant mice; assay type: in vivo, mouse; conditions: tenth to fifteenth day of fetal life
Description: Moreover, Compound 4 was orally administered to pregnant mice carrying Down syndrome model mice from the tenth day to fifteenth day of fetal life, and the thickness of the cerebral cortex was measured at the fifteenth day of fetal life. […] In FIGS. 7A and 7B, “Solvent” indicates the results from adding no compound.

cyclin D1 [7] = test: Western blotting of cyclin D1 expression in HEK293 cells over time; assay type: cell-based; conditions: treated over time
Description: HEK293 cells were treated with Compound 4 or 10 over time, and the expression level of cyclin D1 was examined through Western blotting.

[8] = tested on: Down syndrome model mice (Ts1Cje); test: neurogenesis in the dentate gyrus of the hippocampus of Down syndrome model mice; assay type: in vivo, mouse; conditions: 8-week old Down syndrome model mice
Description: First, a solvent or Compound 4 was administered to 8-week old wild-type mice and 8-week old Down syndrome model mice, and the effect on neurogenesis in the dentate gyrus of the hippocampus was examined.

[9] = tested on: neural stem cells present in the dentate gyrus of the hippocampus; test: neurogenesis in the dentate gyrus of the hippocampus after 10-day administration; assay type: in vivo, rodent; conditions: versus solvent administered group
Description: After 10-day long administration of Compound 4 to a rodent, BrdU was administered thereto, and the number of proliferating cells was quantitatively evaluated. […] In FIGS. 5B and 5C, “Solvent” indicates the results from adding no compound. FIG. 5A is a representative images of thin sections of the dentate gyrus of the hippocampus, and the image of Dapi staining (nucleus staining), the image of doublecortin (DCX) staining, and the image of BrdU staining are shown in the order from top to bottom. FIG. 5B is an example of a graph showing the number of BrdU-positive cells in the dentate gyrus of the hippocampus. FIG. 5C is an example of a graph showing the number of immature neurons in the dentate gyrus of the hippocampus as a relative value determined based on the result from the solvent sample taken as 1.

Down syndrome model mice = test: learning and memory tests (Y maze, Barnes maze, fear conditioning) after prenatal administration; assay type: in vivo, mouse; conditions: 10 mg/kg oral once a day to pregnant mice from tenth day of fetal life until birth; tested at 8 weeks
Description: Compound 4 (10 mg/kg) or a solvent was orally administered to pregnant mice carrying Down syndrome model mice once a day from the tenth day of fetal life until birth. After birth, at the age of 8 weeks, three types of tests (A. Y maze test for spontaneous alteration behavior, B. Barnes maze test for spatial memory, and C. fear conditioning test) were performed successively. FIGS. 8A to 8C show the results. In FIGS. 8A to 8C, “Solvent” indicates the results from adding no compound.

[10] = tested on: Facial nerve palsy model mice; test: facial nerve palsy model, paralysis scores; assay type: in vivo, ICR mouse; conditions: 10 mg/kg every day from an hour before the operation
Description: A facial nerve trunk (3 mm) of a rodent (ICR mouse; 6 to 8 weeks old) was extracted and compressed using a Mosquito forceps with a width of 1 mm for 30 seconds. Facial nerve palsy model mice were thus produced. Compound 4 (10 mg/kg) was administered every day from an hour before the operation (day 0), and paralysis scores relating to nictitation (“no eye-opening” to “cured”), a nose (“extended” to “cured”), and whiskers (“no movement” to “cured”) were evaluated according to four levels. […] In FIG. 9A, “Solvent” indicates the results from adding no compound.

[11] = tested on: zebrafish spinal cord injury; test: zebrafish spinal cord injury model, migration distance by behavior analysis; assay type: in vivo; conditions: in breeding water, sixth to eighth day after fertilization
Source text: On the fifth day after fertilization, the zebrafish spinal cord was injured using an ophthalmic scalpel, and the zebrafish was bred in breeding water containing Compound 4 until the eighth day after fertilization.

Row | Structure (SMILES) | inhibitory effect against the phosphorylation of tau protein (DYRK1A [1]) | expression level of cyclin D1 (cyclin D1 [3]) | incorporation of BrdU into neural stem cells (ratio of BrdU-positive cells relative to control) (Mouse neural stem cells) | IC50 (DYRK1A [2]) [nM] | protein level of cyclin D1 (cyclin D1 [7]) | melting point | further results
1 | c1ccc2c(-c3ccc4[nH]ncc4c3)cncc2c1 [Compound 6] | showed the same tendency as Compounds 4 and 10 | significantly high |  |  |  |  | proliferation of cultured neural stem cells (Mouse neural stem cells; 2.5 μM and 5 μM): promoted the proliferation of cultured neural stem cells; inhibitory activity against DYRK1A (DYRK1A [2]; same experiment as Compounds 4 and 10): lower than that of Compounds 4 and 10
2 | c1cncc(-c2ccc3[nH]ncc3c2)c1 [Compound 4] | exhibited a high inhibitory effect | significantly high | increased the amount of incorporation of BrdU | 55.6 | increased (i.e. the cyclin D1 was stabilized) in a treatment time dependent manner |  | ratio of cell in the G2/M phase of the cell cycle [4]: increased; ratio of cells in the G1 phase of the cell cycle [4]: decreased; ratio of BrdU-positive cells in neural stem cells from Down syndrome model mice [5]: compensated for the reduced proliferation; thickness of cortical layers [6]: compensated for the cerebral cortex with a reduced thickness; number of proliferating cells in dentate gyrus of the hippocampus [8]: compensated for the reduced neurogenesis; number of immature neurons in the dentate gyrus of the hippocampus [9]: significantly larger; number of proliferating cells (BrdU-positive) in the dentate gyrus of the hippocampus [9]: significantly larger; cognitive function (Y maze, Barnes maze, fear conditioning tests) (Down syndrome model mice): improved the cognition function; paralysis scores (nictitation, nose, whiskers) [10]: tended to promote recovery; migration distance after spinal cord injury [11]: migration distance was recovered
3 | c1cncc(Nc2cccc3ncccc23)c1 [Compound 8, 5-(3-Pyridylamino)quinoline] |  |  |  |  |  | 180 °C (dec.) | 
4 | c1cnc2ccc(-c3ccncc3)cc2c1 [Compound 10] | exhibited a high inhibitory effect | significantly high | increased the amount of incorporation of BrdU | 59.7 | increased (i.e. the cyclin D1 was stabilized) in a treatment time dependent manner |  | 
5 | c1cc(-c2ccc3[nH]ncc3c2)c2cccnc2c1 [Compound 1, 5-(5-Quinolyl)indazole] |  |  |  |  |  | 255 °C (dec.) | 
